Laboratory results as given in patent publication US4755388A, “Liposome-encapsulated 5-fluoropyrimidines and methods for their use” (The Regents of the University of California, priority 1986, dated 1988).
Read-outs that look alike come from different tables or passages of the source.

Assays:
[1] = test system: L929 murine fibroblasts; assay: Growth inhibition by 5-fluoroorotate, L929 murine fibroblasts (48 hours); assay type: cell-based; details: free drug mean of 4 determinations, liposomes from individual growth inhibition curves, read-out: IC50 (concentration of the drug that inhibits cell growth by 50%)
Experimental: (§1) All phospholipids (Avanti, Birmingham, Ala.) were used without further purification. Cholesterol (Sigma, St. Louis, Mo.) was recrystallized four times with methanol. All lipids were stored under argon in chloroform solution in sealed ampoules until use. Liposomes were prepared by reverse-phase evaporation (Szoka and Papahadjopoulos (1978) Proc. Natl. Acad. Sci. U.S.A. 75:4194-4198), and extrusion (Szoka et al. (1980) Biochem. et Biophys. Acta. 601:559-571). Small liposomes were made by extensive sonication of lipid suspensions. The unencapsulated drug was removed by gel filtration with Sephadex® G75 (Pharmacia). Lipid concentration was measured by phosporous analysis as described by Bartlett (1959) J. Biol. chem. 234:466-468. The encapsulated drug was measured using a molar extinction coefficient of 7100 in 0.1N HCl. A liposome sample was extracted (Bligh et al. (1959) Can. J. Biochem. Physiol. 37:[…]), the upper phase was acidified with HCl, and its absorbance was meausred. L929 murine fibroblasts and CV1-P cells were obtained and grown as previously described by Heath et al. (1983) Proc. Natl. Acad. Sci. U.S.A. 80:1377-1381 and Fraley et al. (1980) J. Biol. Chem. 255:10431-10435, respectively. The IC50 of the liposome preparations was measured by growth inhibition as previously described by Heath et al. (1983) supra. […]

[2] = test system: CV1-P cells; assay: Growth inhibition by 5-fluoroorotate, CV1-P cells (72 hours); assay type: cell-based; details: free drug mean of 3 determinations, liposomes from individual growth inhibition curves, read-out: IC50 (concentration of the drug that inhibits cell growth by 50%)
Experimental: as §1

[3] = Aqueous solubility; assay type: physicochemical; details: water, read-out: maximum aqueous solubility

O=C(O)c1[nH]c(=O)[nH]c(=O)c1F [Free Drug, 5-fluoroorotate]
IC50 ([1]; L929, 48 hours): 1100 ± 300 nM
IC50 ([1]; Mus musculus, L929, 48 h): 1000 nM
IC50 [2]: 7000 nM

O=C([O-])c1[nH]c(=O)[nH]c(=O)c1F.[Na+] [Sodium 5-fluoroorotate]
solubility [3]: 15 mM

O=C([O-])c1[nH]c(=O)[nH]c(=O)c1F.[Li+] [lithium salt, lithium 5-fluoroorotate]
solubility [3]: ≥ 50 mM
